How the values were obtained:
[1] = type: physicochemical
Procedure: The solubility of triacetyl-resveratrol and of trimethylether of resveratrol in an aqueous solution (of the same composition described in example 1) in presence of CMG was evaluated. In particular, the solubility in aqueous phase of triacetyl-resveratrol and of trimethyl ether of resveratrol was evaluated at first and this value was considered unitary.

[2] = test system: VERO cellular line; assay: Cellular metabolic activity, MTT assay; type: cell-based; details: VERO cells, resveratrol 0.5 mg/ml (2.2 mM), 6 hours after exposition, versus not treated cells (CTRL)
Procedure: The cellular metabolic activity is evaluated on VERO cellular line, by means of MTT cellular proliferation assay (3-(4,5-dimethylthiazole-2-il)-2,5-diphenyltetrazolium bromide). The test with MTT is a simple method for determining the metabolic activation of the cells and it is based upon the action of the mitochondrial enzyme succinate dehydrogenase reducing the tetrazolium salts in crystals of a bluish product called formazan. Therefore the reaction can take place only in the metabolically active cells and the value of optical density (O.D.), obtained by means of spectrophotometric reading, can be correlated to the quantity of existing vital cells.
Upon considering the application of the association CMG-resveratrol for the formulation of pharmaceutical products, dietary supplies, medical devices, cosmetic products, functional pieces of food, veterinary products, with consequent interaction with the biological systems of men and animals in general, even the possible cytotoxycity was evaluated. In particular tests of cellular metabolic activity in presence of resveratrol and CMG on VERO cellular line were performed. […]
6 hours after exposition to these substances MTT colouring agent was added, then the formazan produced by the metabolically active cells was extracted with isopropanol and the optical density measured at 570 nm by subtracting the reference value at 690 nm. […]

[3] = Stability over time of resveratrol in aqueous solution (25°C, closed, protected from light), HPLC; type: physicochemical; details: resveratrol alone 0.03 mg/ml
Procedure: (§1) The chromatographic method devised for determining resveratrol provides the use of a HPLC Waters system constituted by a pump, 600 model, by a Waters self-sampler mod. 717 and by a UV-Visible Photodiode array detector mod 2996. The system is handled by the Millenium^32 software. The used chromatographic column is a Symmetry C-18 with length of 15 cm, associated to a specific pre-column of same material with length of 1 cm. The elution is performed under isocratic conditions by using the following mixtures: • 1) 30% [Acetic acid 0.1 % in methanol] e 70% [Acetic acid 0.1 % in water] • 2) 80% [Acetic acid 10% in water] and 20% [Acetonitrile]. For the measurements 50 µL of sample are taken, diluted in 500µL of mobile phase and an aliquot of 50µL is injected in HPLC.
The examined concentration of the solution of resveratrol was 0.03 mg/ml, corresponding to the maximum quantity which can be solubilized in water of the original product. […] The two solutions were kept under the same conditions described above for the solution of resveratrol only and they were evaluated in different moments as from the time of the preparation thereof. […]

[4] = Solubility of resveratrol in buffered aqueous solution in presence of CMG, determined by HPLC; type: physicochemical
Procedure: as §1
The solutions of CMG and resveratrol have always been prepared in a buffered, isotonic, physiological pH-containing aqueous solution, constituted by: • dipotassium phosphate 0.74% • sodium chloride 0.42% • potassium phosphate 0.175%
All solutions were cold-prepared and without using any organic solvent.
In order to evaluate the solubility, with consequent effect on the bioavailability thereof, formulations were prepared containing resveratrol in association with CMG at increasing concentrations (from 0.5 mg/ml to 10 mg/ml) in a ratio 1:1, in an aqueous solution of the above-mentioned composition. […]

| Structure (SMILES) | increase of solubility in presence of CMG, relative to solubility of the pure compound considered unitary [1] | reduction in the cellular metabolic activity [2] | stability of resveratrol in buffer solution ([3]; after 2 months) | stability of resveratrol in buffer solution ([3]; after 7 months) | concentration of CMG from which highly solubilizing action on resveratrol is confirmed [4] | solubilization higher than what reported in literature [4] |
| --- | --- | --- | --- | --- | --- | --- |
| CC(=O)Oc1ccc(/C=C/c2cc(OC(C)=O)cc(OC(C)=O)c2)cc1 [triacetylresveratrol, triacetyl-resveratrol] | more than one and a half time |  |  |  |  |  |
| Oc1ccc(C=Cc2cc(O)cc(O)c2)cc1 [resveratrol, 3,4',5-trihydroxystilbene] |  | 20% | strong degradation | no more detected | ≥ 250 µg/mL | at least 100 times |
| COc1ccc(/C=C/c2cc(OC)cc(OC)c2)cc1 [trimethylether of resveratrol] | three times |  |  |  |  |  |
